The record followed here is ChEMBL document CHEMBL1857833, “Screening and optimization of specific chemical series against human African Trypanosomiasis (HAT)”.

Each structure is given as a SMILES string. In brackets after ≈: the same amount, converted by molar mass. Several values for one entry are separate records, joined by “and”; a condition that tells them apart may be missing. Identical values can stand only once.

Data set [1] in a line: DNDI: Cytotoxicity against L929 mouse fibroblasts, 72 hour. In kind it is toxicity, cell-based. The settings on record: mouse, L929 mouse fibroblasts.
In data set [2] the test system is Trypanosoma brucei. In words: DNDI: Inhibition of Human African Trypanosomiasis, SBRI 427, in vitro. In kind it is functional, organism-based.
Data set [3] deals with Trypanosoma brucei. The data set is described as follows: DNDI: Mean survival time in days (MSD) of mice after intraperitoneal injection of Human African Trypanosomiasis (HAT), EATRO 110, in vivo at 20 mg/kg/day for 4 days. It is filed as functional, Mus musculus.
The conditions of data set [4]: mouse, microsomes, 1 µM.
Description: DNDI: in vitro intrinsic clearance in mouse liver microsomes at a concentration of 1uM
The next data set is described as follows: in vitro. To be noted: mouse, liver microsomes, t (1 / 2). Background: Liver microsomes are vesicles of endoplasmic reticulum, rich in cytochrome P450 enzymes.
Data set [5] in a line: DNDI: Cytotoxicity against L929 mouse fibroblasts, CYTO-SP, 24 hour. To be noted: mouse, L929 mouse fibroblasts. It is filed as toxicity, cell-based.
A further data set has as its system Leishmania donovani. In words: DNDI: Inhibition of formation of Leishmania donovani (strain MHOM/ET/67/L82) axenic amastigotes, in vitro. In kind it is functional, organism-based.
In data set [6] the test system is Trypanosoma brucei rhodesiense. The data set is described as follows: DNDI: Inhibition of Human African Trypanosomiasis (HAT), STIB 900, in vitro. In kind it is functional, organism-based.
A short description of data set [7]: DNDI: Cytotoxicity against L-6 rat myoblasts from skeletal muscle cells. The settings on record: L-6 rat skeletal muscle myoblasts. In kind it is toxicity, cell-based, L6.
For another data set, the system named is Trypanosoma cruzi. In words: DNDI: Inhibition of Chagas Disease parasite Trypanosoma cruzi (Tulahuen LacZ, Clone C4), in vitro. In kind it is functional, organism-based.
Another data set has as its system Plasmodium falciparum. The data set is described as follows: DNDI: Inhibition of the malaria parasite Plasmodium falciparum, in vitro. In kind it is functional, organism-based. The settings on record: K1.
The nature of data set [8]: DNDI: Lipophilicity measured in Chromatographic hydrophobicity index (CHI) assay, pH 7.4. In kind it is physicochemical. To be noted: buffer.
A short description of data set [9]: DNDI: Solubility in phosphate buffered saline at pH7.4 measured by nephelometry at room temperature (NEPH-RT). It is filed as physicochemical. The settings on record: pH 7.4.
In data set [10] the test system is Trypanosoma brucei. The data set is described as follows: DNDI: Inhibition of Human African Trypanosomiasis, Cross 22, in vitro. In kind it is functional, organism-based.
[11] abbreviates: Trypanosoma brucei, SBRI 427, read-out: IC50.

Description for in vitro: DNDI: half life in mouse liver microsomes at a concentration of 1uM

For orientation: IC50 means the midpoint of a concentration-inhibition curve. In data set [1], `CCc1ccc(Oc2ncccc2/C(=N\O)NC2CCCCC2)cc1` came in with an IC50 at 72 h greater than 10 µg/mL. For the same molecule, the half-maximal inhibitory concentration (IC50) in the data set on Trypanosoma brucei [2] (setting [11]) worked out at 0.09 µg/mL (≈ 0.265 µM). The molecule further had an MSD in the data set with Trypanosoma brucei [3] of 4 days.

What is called half-life is how long it takes for the measured level to halve. Take `Cc1ccc(/C(=N/O)NC2CCCCC2)c(Oc2ccc(C(C)(C)C)cc2)n1`: the CLint in vitro in data set [4] is 98.83 µL/min/mg. Moreover, in data set [1], half-maximal inhibition (IC50 at 72 h) was put at 4.06 µg/mL (≈ 10.6 µM). The half-life at 1 µM in “in vitro” came to 8.61 min. Further, in the data set on Trypanosoma brucei [2] (setting [11]), the IC50 was greater than 5 µg/mL. The same molecule registered an MSD in the data set with Trypanosoma brucei [3] of 4.5 days.

For the molecule `CCc1ccc(N/C(=N/O)c2ccc(OC)cc2)cc1`, the IC50 in the data set with Trypanosoma brucei [2] (setting [11]) is 3.69 µg/mL (≈ 13.6 µM). Also, in data set [5], the IC50 at 24 h is greater than 50 µg/mL. In the data set with Trypanosoma brucei [3], the MSD came out at 4.5 days.

Molecule `CC(C)(C)c1ccc(Oc2ncccc2/C(=N/O)Nc2cccc(F)c2)cc1` displayed a CLint in vitro in data set [4] of 35.83 µL/min/mg. This molecule also displayed an IC50 at 72 h in data set [1] of 3.39 µg/mL (≈ 8.93 µM). This molecule also yielded a half-life at 1 µM in the data set “in vitro” of 23.7 min. In the data set on Trypanosoma brucei [2] (setting [11]), the IC50 was greater than 5 µg/mL. The same molecule displayed an MSD with Trypanosoma brucei [3] of 4 days.

As to `CCc1ccc(Oc2ncccc2/C(=N\O)NC2CCCCC2O)cc1` (stereo unspecified), the CLint in vitro in data set [4] was found to be 51 µL/min/mg. This molecule came in with an IC50 at 72 h in [1] greater than 10 µg/mL. The molecule further returned a half-life at 1 µM in the data set “in vitro” of 17 min. Further, the IC50 in the data set with Trypanosoma brucei [2] (setting [11]) is greater than 5 µg/mL. Moreover, the MSD with Trypanosoma brucei [3] was found to be 4 days.

`CCc1ccc(Oc2ncccc2/C(=N\O)NC2CCCC[C@@H]2N)cc1` (stereo partly specified) displayed a CLint in vitro in data set [4] of 7 µL/min/mg. In data set [1], this molecule gave an IC50 at 72 h greater than 10 µg/mL. This molecule also had a half-life at 1 µM in “in vitro” of 116 min. Further, the IC50 with Trypanosoma brucei [2] (setting [11]) was greater than 5 µg/mL. Further, in the data set on Trypanosoma brucei [3], the MSD was found to be 4 days.

In [1], `CCC(CC)N/C(=N\O)c1ccccc1-c1ccccc1` yielded an IC50 at 72 h greater than 10 µg/mL. Also, the 50% inhibitory concentration (IC50) came out at 13.3 µg/mL (≈ 47 µM) in the data set with Leishmania donovani; 8.99 µg/mL (≈ 31.8 µM) in [6]; 17.2 µg/mL (≈ 60.9 µM) in data set [7]; 7.73 µg/mL (≈ 27.4 µM) in the data set on Trypanosoma cruzi; 1.19 µg/mL (≈ 4.21 µM) in the data set with Trypanosoma brucei [2] (setting [11]); 2.18 µg/mL (≈ 7.72 µM) in the data set with Plasmodium falciparum. The same molecule had an IC50 at 24 h in data set [5] greater than 50 µg/mL.

As to `O/N=C(\NCC1CCCCC1)c1ccccc1-c1ccccc1`, in data set [1], the midpoint of inhibition, the IC50 at 72 h, lay at 2.72 µg/mL (≈ 8.82 µM). Also, the IC50 in the data set with Leishmania donovani came to 4.75 µg/mL (≈ 15.4 µM); in data set [6], 18.7 µg/mL (≈ 60.6 µM); in data set [7] it was 14.8 µg/mL (≈ 47.9 µM); with Trypanosoma cruzi, 3.63 µg/mL (≈ 11.8 µM); in the data set with Trypanosoma brucei [2] (setting [11]) it was 2.15 µg/mL (≈ 6.97 µM); in the data set with Plasmodium falciparum, 2.7 µg/mL (≈ 8.75 µM). In addition, the half-maximal inhibitory concentration (IC50) at 24 h in data set [5] was found to be 16.1 µg/mL (≈ 52.1 µM).

Usually chromatographic logD stands for lipophilicity estimated from chromatographic retention. Read a low chromatographic logD as a more hydrophilic compound. In general, kinetic solubility refers to solubility judged after dilution from a stock solution rather than from solid. Regarding `COc1ccc(CNC(CCc2ccccc2)c2nc(Cc3ccccc3)c(N3CCCCC3)o2)cc1OC` (stereo unspecified), in data set [4], the CLint in vitro stood at 354 µL/min/mg. Further, the concentration for half-maximal inhibition (IC50) at 72 h in data set [1] is greater than 10 µg/mL. Besides, the half-life at 1 µM in the data set “in vitro” turned out to be 2 min. In addition, the IC50 in the data set with Trypanosoma brucei [2] (setting [11]) came out at 2.54 µg/mL (≈ 4.83 µM). The chromatographic logD in data set [8] is greater than 5.2. In addition, the MSD with Trypanosoma brucei [3] worked out at 4 days. The solubility (kinetic) in [9] was 3 µM (≈ 1.58 µg/mL).

For the molecule `O/N=C(\NC1CCCCC1)c1ccsc1`, in data set [1], the IC50 at 72 h is greater than 10 µg/mL. In addition, the concentration for half-maximal inhibition (IC50) was 13.6 µg/mL (≈ 60.8 µM) with Leishmania donovani; 25.9 µg/mL (≈ 115 µM) in data set [6]; greater than 83.5 µg/mL in [7]; greater than 30 µg/mL in the data set with Trypanosoma cruzi; greater than 5 µg/mL with Trypanosoma brucei [2] (setting [11]); greater than 5 µg/mL in the data set on Plasmodium falciparum. The molecule also yielded an IC50 at 24 h in [5] greater than 50 µg/mL.

`CCc1ccc(/C(=N/O)NC2CCCCC2)cc1` had a CLint in vitro in [4] of 210 µL/min/mg. Further, in data set [1], the 50% inhibitory concentration (IC50) at 72 h was greater than 10 µg/mL. For the same molecule, the half-maximal inhibitory concentration (IC50) with Leishmania donovani was 11.3 µg/mL (≈ 45.9 µM); in data set [6], 8.75 µg/mL (≈ 35.5 µM); in data set [7], 53.8 µg/mL (≈ 218 µM); in the data set on Trypanosoma cruzi, 10.8 µg/mL (≈ 43.7 µM); with Trypanosoma brucei [2] (setting [11]), 0.98 µg/mL (≈ 3.98 µM); in the data set with Plasmodium falciparum it was greater than 5 µg/mL. In addition, the half-life at 1 µM in the data set “in vitro” came to 4 min. In addition, the half-inhibitory concentration (IC50) at 24 h in [5] is greater than 50 µg/mL. Besides, the chromatographic logD in data set [8] is 4.6. In the data set with Trypanosoma brucei [3], the MSD worked out at 4 days. The molecule also returned a solubility (kinetic) in data set [9] of 50 µM (≈ 12.3 µg/mL).

On to `CC1CCC(N/C(=N\O)c2cccnc2Oc2ccccc2Cl)CC1` (stereo unspecified), for which the IC50 at 72 h in data set [1] was greater than 10 µg/mL. The IC50 in the data set with Leishmania donovani was determined as 6.18 µg/mL (≈ 17.2 µM); in [6], 20.9 µg/mL (≈ 58.1 µM); in data set [7] it was 50.2 µg/mL (≈ 139 µM); in the data set with Trypanosoma cruzi, 4.72 µg/mL (≈ 13.1 µM); with Plasmodium falciparum, 4.4 µg/mL (≈ 12.2 µM). The molecule further had an IC50 at 24 h in data set [5] greater than 50 µg/mL.

Consider `CCCCCC(C)NCc1coc(-c2ccc(C(C)(C)C)cc2)n1` (stereo unspecified), for which the IC50 was 0.49 µg/mL (≈ 1.49 µM) with Trypanosoma brucei [10]; 6.61 µg/mL (≈ 20.1 µM) in the data set on Leishmania donovani; 0.302 µg/mL (≈ 0.919 µM) in [6]; 3.25 µg/mL (≈ 9.89 µM) in data set [7]; 2.8 µg/mL (≈ 8.52 µM) in the data set with Trypanosoma cruzi; 0.86 µg/mL and 0.42 µg/mL in the data set with Trypanosoma brucei [2]. This molecule also registered an IC50 in the data set on Plasmodium falciparum of 0.694 µg/mL (≈ 2.11 µM). Besides, the CLint in vitro in data set [4] came out at 17 µL/min/mg. In [1], this molecule returned a concentration for half-maximal inhibition (IC50) at 72 h of 1.36 µg/mL (≈ 4.14 µM). This molecule returned a half-life at 1 µM in “in vitro” of 51 min. The midpoint of inhibition in [5], the IC50 at 24 h, lay at 9 µg/mL (≈ 27.4 µM).

Regarding `CCCCCC(C)NCc1coc(-c2ccccc2)n1` (stereo unspecified), the IC50 at 72 h in data set [1] is greater than 10 µg/mL. The IC50 in the data set on Leishmania donovani turned out to be 29.5 µg/mL (≈ 108 µM); in data set [6], 0.823 µg/mL (≈ 3.02 µM); in data set [7], 14.3 µg/mL (≈ 52.4 µM); in the data set on Trypanosoma cruzi, 14.6 µg/mL (≈ 53.6 µM); in the data set on Trypanosoma brucei [2] (setting [11]), 4.72 µg/mL (≈ 17.3 µM); with Plasmodium falciparum, 1.21 µg/mL (≈ 4.44 µM). In data set [5], this molecule showed an IC50 at 24 h of 32 µg/mL (≈ 117 µM).
